Data reported in patent US20120093947A1, “METHOD OF TREATING REACTIVE AIRWAY DISEASE” (UNITED STATES DEPARTMENT OF VETERANS AFFAIRS, priority 2009, published 2012).

Tests used:
[1] = target: MPO (Homo sapiens, UniProt P05164); test: Oxidation of β2-agonists by MPO/H2O2, spectrophotometric ΔA315; assay type: biochemical; set-up: Myeloperoxidase (MPO) from human leucocytes (lyophilized powder); purchased Axxora, LLC (San Diego, Calif.); host or cells: human leucocytes (natural source); details: 200 mU/mL MPO
Chain of MPO (P05164 279-745 limits assumed): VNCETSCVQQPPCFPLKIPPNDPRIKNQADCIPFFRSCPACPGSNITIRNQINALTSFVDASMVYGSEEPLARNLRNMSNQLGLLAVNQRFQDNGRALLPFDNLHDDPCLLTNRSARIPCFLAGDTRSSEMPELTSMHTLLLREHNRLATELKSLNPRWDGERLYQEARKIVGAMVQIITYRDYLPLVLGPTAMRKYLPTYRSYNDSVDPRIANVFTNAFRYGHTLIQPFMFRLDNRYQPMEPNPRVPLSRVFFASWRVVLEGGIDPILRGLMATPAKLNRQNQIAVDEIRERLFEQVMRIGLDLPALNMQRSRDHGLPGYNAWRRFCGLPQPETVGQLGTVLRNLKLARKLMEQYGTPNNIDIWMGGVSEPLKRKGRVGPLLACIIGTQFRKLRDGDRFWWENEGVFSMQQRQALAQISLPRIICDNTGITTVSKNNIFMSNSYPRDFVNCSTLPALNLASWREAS
Chain of MPO (P05164 165-273 limits assumed): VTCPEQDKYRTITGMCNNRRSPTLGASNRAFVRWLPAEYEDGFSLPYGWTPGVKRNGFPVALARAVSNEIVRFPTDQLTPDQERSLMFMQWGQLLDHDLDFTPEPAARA
Experimental: (§1) Spectrophotometric Measurements. Spectra are measured using an Agilent diode array spectrophotometer model 8453 (Agilent Technologies, Inc., Santa Clara, Calif.). Oxidation of β2-agonists is studied by measuring absorption spectra at designated time points following reaction starts. Samples are prepared in 50 mM acetate buffer (pH 5.0), 50 and 100 mM phosphate buffers (pH 7.0 and 8.0) and 100 mM Tris/HCl (pH 9.19). All buffers contain DTPA (100 and 200 μM) and measurements are performed at an ambient temperature of 20° C. The reaction is started by the addition of a small aliquot of H2O2 (2, 5 or 10 μL), or glucose oxidase (1 μL), if glucose/glucose oxidase was used to generate H2O2, to a sample containing a studied compound, peroxidase and, if required, an inhibiting co-factor. Time course measurements are carried out following changes in absorbance at 315 nm in 15 second intervals versus absorbance at 800 nm, where none of the compounds absorb. The 315 nm wavelength is chosen because β2-agonists' oxidation products absorb intensely near 315 nm, and because it is close to the absorption maximum of tyrosine dimers.
The concentration of AscH^− in airway fluid was estimated to be near 100 μM (Id.), so we use concentrations within this physiological range. […] AscH^− affects oxidation of salbutamol and fenoterol similarly, causing delay in the net oxidation of both drugs. A315 increases after a lag period, the duration of which depends on AscH^− concentration. Net oxidation of the drugs occurs only when AscH^− is consumed. […] This is understandable given that the concentration of H2O2 was only 50 μM and the peroxide was used to oxidize both the drugs and AscH^−. […] The proposed mechanisms of inhibition are reactions A and B, shown below, which reveal that recovery of the drug occurs at the expense of AscH^−, which is oxidized to the ascorbate radical (A^•−).
[…]. The extent of oxidation is expressed as ΔA315±SE versus control (in %) during 22 minutes of reaction at 20° C. Values are the mean of at least duplicate determinations.

[2] = target: T1, LPO (Bos taurus, UniProt P80025); test: Oxidation of β2-agonists by LPO/H2O2 (glucose/glucose oxidase), spectrophotometric ΔA315; assay type: biochemical, bovine; details: 1 mM glucose/0.2 μg/mL glucose oxidase, pH 7.0, 30 min, % of control; for Amount of metabolite formed ΔA315 (%) Fenoterol: 50 μM fenoterol, 158 nM LPO; for Amount of metabolite formed ΔA315 (%) Salbutamol: 100 μM salbutamol, 216 nM LPO
T1 construct: Lactoperoxidase (LPO) from bovine milk (EC 1.11.1.7); purchased Sigma-Aldrich Co. (St. Louis, Mo.); host or cells: bovine milk (natural source)
Experimental: as §1
In certain experiments, oxidation of β2-agonists by peroxidases is carried out using H2O2 generated by the reaction of glucose (1 mM) with glucose oxidase (0.2 μg/mL). The rate of H2O2 generation in these systems was estimated based on the rate of oxidation of ABTS (1 mM) to the green ABTS radical cation (ABTS^•+) by HRP, at increasing concentrations of the enzyme. Concentrations of glucose and glucose oxidase are the same as those used in experiments with β2-agonists. The plot of the rate of ABTS^•+ oxidation at 420 nm (determined from the linear portion of kinetic runs) versus [HRP] is a curve, which plateaus above a certain threshold value [HRP]. The mean value of the rate from the plateau region (dA420/dt=ε420×d[ABTS^•+]/dt) is taken as the rate at which all H2O2 produced glucose/glucose was immediately used up by the enzyme to oxidize ABTS. Calculations are performed using […] (ABTS^•+ of 3.6×10^4 M^−1 cm^−1) (Childs et al. (1975) Biochem. […].
H2O2 is generated by 1 mM glucose and 0.2 μg/mL glucose oxidase. Oxidation of 50 μM fenoterol and 100 μM salbutamol is carried out in 0.1 M potassium phosphate buffer (pH 7.0) containing 0.1 mM DTPA in the presence of LPO (158 nM LPO for fenoterol and 216 nM for salbutamol). The extent of inhibition is determined by measuring ΔA315 during 30 minutes of reaction and is expressed as % of control (mean±SE from at least two determinations).

[3] = target: T1, LPO; test: Nitration of salbutamol by LPO/H2O2/NO2−, A410; assay type: biochemical, bovine
Experimental: Spectrophotometric Measurements. Spectra are measured using an Agilent diode array spectrophotometer model 8453 (Agilent Technologies, Inc., Santa Clara, Calif.). Nitration of salbutamol is studied by measuring absorption spectra at designated time points following the start of the reaction. Samples are prepared in 100 mM phosphate buffers (pH 7.0). All buffers contained DTPA (100 μM) or are pretreated with Chelex-100 before use, and measurements are performed at ambient temperature of 20° C. Typically, the reaction is started by the addition of a small aliquot of H2O2 or the desired peroxidase. Time course measurements are carried out following changes in absorbance at 410 nm in 30 second intervals versus absorbance at 800 nm, where none of the compounds absorb.
Ascorbate (AscH^−) is an effective natural antioxidant protecting airways from oxidative injury. Cross et al., (1994) Environ. Health Perspect. 102 (suppl. 10):185-191. Its concentration in the respiratory tract lining fluid is estimated to be near 100 μM (Id.). We examine the effect of AscH^− on nitration of 100 μM salbutamol by 67 nM LPO, 4 mM H2O2, and 3.5 mM of NaNO2 by measuring absorption at 410 nm. […] The duration of the lag period depends on AscH^− concentration. […] See, e.g., Reszka et al. (1999) Free Radic. Biol. & Med. 26:669-678.
As noted earlier, methimazole is an antithyroid drug, an effective inhibitor of LPO activity. 100 μM of salbutamol is reacted with 73 nM LPO, 3.5 mM NaNO2, and 4 mM H2O2 at pH buffer 7.0 in the presence of 0, 27, 55, and 109 μM methimazole (shown in FIG. 9, section A, traces a-d, respectively). Traces c and d also indicate by arrow when additional LPO is added to the system. […] In contrast to effects exerted by AscH^− or SCN^−, methimazole-dependent inhibition is permanent and is probably due to inactivation of the enzyme, since a second dose of LPO reactivates the process (FIG. 9, section A, trace c).
Dapsone, an anti-inflammatory and anti-leprotic agent, is a potent inhibitor of LPO and MPO. See, e.g., Kettle et al. (1991) Biochem. Pharmacol. 41(10):1485-1492; Bozeman et al. (1992) Biochem. Pharmacol. 44(2):553-563. 97 μM of salbutamol is reacted with 65 nM LPO, 3.4 mM NaNO2, and 4 mM H2O2 at pH buffer 7.0 in the presence of 0, 2.5, 5, 10, 50, and 100 μM dapsone (shown in FIG. 10, traces a-f, respectively). The arrows in traces d and e of FIG. 10 indicate where additional LPO is added to the system. […] Dapsone at 50 μM inhibited nitration by approximately 86%. Given the high concentrations of NaNO2 and H2O2 used in this system, dapsone appears to be a potent blocker of nitration.
The extent of nitration is expressed as a change in ΔA410 versus control (dapsone omitted) taken as 100% after 10, 30, and 60 minute reactions for LPO, MPO, and EPO nitrating systems, respectively. Results equal the means±SE of at least two measurements. In the LPO system, 100 μM of salbutamol, 3.4 mM of NaNO2, 4 mM of H2O2, and 65 nM of LPO is used. In the MPO system, 50 μM of salbutamol, 5.0 mM of NaNO2, 5 mM of H2O2, and 0.2 U/mL of MPO is used. In the EPO system, 50 μM of salbutamol, 5 mM of NaNO2, 2 mM of H2O2, and 0.075 U/mL of EPO is used. All reactions were carried out in pH 7.0 phosphate buffer containing DMSO (5% v/v). The term “nitrophenols” includes nitrosalbutamol (N-Sal) and salbutamol-derived nitrophenol (N—ArOH).

[4] = inhibitor 0.1 mM, listed as L-methionine
[5] = inhibitor 0.1 mM, listed as thiocyanate
[6] = inhibitor 1 mM, listed as azide

## N[C@@H](CCC(=O)N[C@@H](CS)C(=O)NCC(=O)O)C(=O)O [GSH, glutathione]
[1]; 100 μM fenoterol, 50 μM H2O2, pH 7.0, 30 min, co-factor 0.1 mM
  ΔA315 (%) Fenoterol, extent of oxidation versus control: 43.3 ± 14.5%
[1]; 100 μM salbutamol, 50 μM H2O2, pH 7.0, 30 min, co-factor 0.1 mM
  ΔA315 (%) Salbutamol, extent of oxidation versus control: 62.0 ± 17.3%

## CSCC[C@H](N)C(=O)O [Methionine, L-methionine]
[2]; inhibitor 0.1 mM
  Amount of metabolite formed ΔA315 (%) Fenoterol: 103.7 ± 2.0%
  Amount of metabolite formed ΔA315 (%) Salbutamol: 105.5 ± 16.2%
[2]; [4]
  Amount of metabolite formed ΔA315 (%) Fenoterol: inactive
  Amount of metabolite formed ΔA315 (%) Salbutamol: inactive
[2]; inhibitor 2 mM
  Amount of metabolite formed ΔA315 (%) Fenoterol: 95.0 ± 3.5%

## N#C[S-].[Na+] [NaSCN]
[2]; inhibitor 0.1 mM
  Amount of metabolite formed ΔA315 (%) Fenoterol: 22.8 ± 3.8%
  Amount of metabolite formed ΔA315 (%) Salbutamol: 5.5 ± 7.3%
[2]; [5]
  Amount of metabolite formed ΔA315 (%) Fenoterol: markedly inhibit
  Amount of metabolite formed ΔA315 (%) Salbutamol: markedly inhibit
[3]; 50 μM NaSCN
  Nitration of salbutamol by LPO/H2O2/NO2− (A410 versus time): completely prevented
[3]; [NaSCN] <50 μM (10, 25 μM)
  Nitration of salbutamol by LPO/H2O2/NO2− (A410 versus time): only transiently

## [N-]=[N+]=[N-].[Na+] [NaN3]
[2]; inhibitor 1 mM
  Amount of metabolite formed ΔA315 (%) Fenoterol: 45.5 ± 3.9%
  Amount of metabolite formed ΔA315 (%) Salbutamol: 17.4 ± 7.1%
[2]; [6]
  Amount of metabolite formed ΔA315 (%) Fenoterol: strongly inhibited
  Amount of metabolite formed ΔA315 (%) Salbutamol: strongly inhibited
[1]; 1 mM fenoterol, 50 μM H2O2, pH 7.0, 22 min, 20° C., co-factor 1 mM
  ΔA315 (%) Fenoterol, extent of oxidation versus control: 17.9 ± 4.2%
[1]; 1 mM salbutamol, 50 μM H2O2, pH 7.0, 22 min, 20° C., co-factor 1 mM
  ΔA315 (%) Salbutamol, extent of oxidation versus control: 6.6 ± 1.3%

B1: Catalase: catalase from bovine liver (EC 1.11.1.6; 2,350 U/mg) (protein, UniProt P00432 2-527, looked up)
Catalase: ADNRDPASDQMKHWKEQRAAQKPDVLTTGGGNPVGDKLNSLTVGPRGPLLVQDVVFTDEMAHFDRERIPERVVHAKGAGAFGYFEVTHDITRYSKAKVFEHIGKRTPIAVRFSTVAGESGSADTVRDPRGFAVKFYTEDGNWDLVGNNTPIFFIRDALLFPSFIHSQKRNPQTHLKDPDMVWDFWSLRPESLHQVSFLFSDRGIPDGHRHMNGYGSHTFKLVNANGEAVYCKFHYKTDQGIKNLSVEDAARLAHEDPDYGLRDLFNAIATGNYPSWTLYIQVMTFSEAEIFPFNPFDLTKVWPHGDYPLIPVGKLVLNRNPVNYFAEVEQLAFDPSNMPPGIEPSPDKMLQGRLFAYPDTHRHRLGPNYLQIPVNCPYRARVANYQRDGPMCMMDNQGGAPNYYPNSFSAPEHQPSALEHRTHFSGDVQRFNSANDDNVTQVRTFYLKVLNEEQRKRLCENIAGHLKDAQLFIQKKAVKNFSDVHPEYGSRIQALLDKYNEEKPKNAVHTYVQHGSHLSAREKANL
[1]; 1 mM fenoterol, 50 μM H2O2, pH 7.0, 22 min, 20° C., co-factor 235 U/mL
  ΔA315 (%) Fenoterol, extent of oxidation versus control: 0.0%
[1]; 1 mM salbutamol, 50 μM H2O2, pH 7.0, 22 min, 20° C., co-factor 235 U/mL
  ΔA315 (%) Salbutamol, extent of oxidation versus control: 0.0%
